# Results: patent publication US11439627B2, “Pharmaceutical composition for the treatment of autism” (Stalicla S.A., priority 2017, dated 2022)
# Assays:
# [1] = tested on: patients with autism spectrum disorder classified as Phenotype 1; experiment: ADI-r scores of ASD phenotype 1 patients under treatment; assay type: in vivo, human; settings: after four weeks of ibudilast 0.6 mg/kg daily total, TID
# Description: A pharmaceutical composition comprising ibudilast and bumetanide was administered to patients with a diagnosis of autism spectrum disorder as defined in the DSM-5, or PDD-NOS or Asperger syndrome as defined in the DSM-IV. Eligibility criteria: male sex, age 5-50, no current chronic illness, no history of active seizures within 1 year, normal liver, renal and thyroid function. Concomitant medications were permitted if doses were stable for at least 60 days prior to the initiation of the challenge test. Patients with no syndromic or identified genetic etiology. […] Description: Four of the patients characterized as above were administered ibudilast. The four subjects had varying levels of functioning ranging from mild to severe, and varying different levels of verbal and intellectual abilities. IQ values ranged from 61 to 86. All were males. Four patients were treated with ibudilast at a daily total dosage of 0.6 mg/kg, TID. A new treatment regimen was introduced, this time ibudilast at a daily total dosage of 0.6 mg/kg, TID, was administered in conjunction with bumetanide at a daily total dosage of 0.08 mg/kg, BID (with a maximum upper daily dose of […]).
# [2] = single dose of 10 mg, healthy adults, in 72 hours; cited from earlier work
smiles,measurement,setting,value
CC(C)C(=O)c1c(C(C)C)nn2ccccc12 [ibudilast],ADI-r RI,"[1]; Patient 1, baseline 7",6
same,ADI-r C,"[1]; Patient 1, baseline 24",20
same,ADI-r SI,"[1]; Patient 1, baseline 28",21
same,ADI-r RI,"[1]; Patient 2, baseline 5",5
same,ADI-r C,"[1]; Patient 2, baseline 19",15
same,ADI-r SI,"[1]; Patient 2, baseline 20",16
same,ADI-r RI,"[1]; Patient 3, baseline 7",5
same,ADI-r SI,"[1]; Patient 3, baseline 14",12
same,ADI-r C,"[1]; Patient 3, baseline 18",14
same,ADI-r RI,"[1]; Patient 4, baseline 7",7
same,ADI-r C,"[1]; Patient 4, baseline 17",14
same,ADI-r SI,"[1]; Patient 4, baseline 27",22
same,dose excreted as metabolites in urine,[2],about 60%
